The values below come from ChEMBL document CHEMBL4261613, “Discovery of a potent orally bioavailable retinoic acid receptor-related orphan receptor-gamma-t (RORγt) inhibitor, S18-000003” (Bioorg Med Chem Lett, 2018).

Converted amounts (≈) assume the structure as drawn.

The nature of data set [1]: Oral bioavailability in rat at 1 mg/kg. The following applies: in vivo. The class given is ADME, organism-based.
Data set [2] is described as follows: Solubility of the compound in KH2PO4/Na2HPO4 buffer at pH 6.8 by shake-flask method. It counts as physicochemical.
For data set [3], the target named is T1, Nuclear receptor ROR-alpha (Homo sapiens, UniProt P35398).
T1 sequence (P35398 whole entry): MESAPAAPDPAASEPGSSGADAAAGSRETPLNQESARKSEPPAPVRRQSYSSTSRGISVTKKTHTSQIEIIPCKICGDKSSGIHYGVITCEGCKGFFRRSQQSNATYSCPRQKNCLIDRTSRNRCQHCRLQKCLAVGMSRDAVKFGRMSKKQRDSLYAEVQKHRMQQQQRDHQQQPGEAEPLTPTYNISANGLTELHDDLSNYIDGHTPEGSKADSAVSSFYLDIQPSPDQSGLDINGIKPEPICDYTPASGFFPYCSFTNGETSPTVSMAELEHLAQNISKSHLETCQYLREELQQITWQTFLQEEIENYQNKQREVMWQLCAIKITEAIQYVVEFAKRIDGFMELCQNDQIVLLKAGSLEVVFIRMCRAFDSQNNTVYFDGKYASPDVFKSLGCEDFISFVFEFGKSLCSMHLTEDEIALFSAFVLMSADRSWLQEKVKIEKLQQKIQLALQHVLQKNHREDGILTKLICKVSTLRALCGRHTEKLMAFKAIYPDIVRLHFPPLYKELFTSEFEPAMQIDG
Briefly: Displacement of [3H]T0901317 from recombinant human GST-fused RORalpha LBD after 1 to 4 hrs by microbeta scintillation counting method.

The target of data set [4] is T2, Oxysterols receptor LXR-beta (Homo sapiens, UniProt P55055).
T2 sequence (P55055 whole entry): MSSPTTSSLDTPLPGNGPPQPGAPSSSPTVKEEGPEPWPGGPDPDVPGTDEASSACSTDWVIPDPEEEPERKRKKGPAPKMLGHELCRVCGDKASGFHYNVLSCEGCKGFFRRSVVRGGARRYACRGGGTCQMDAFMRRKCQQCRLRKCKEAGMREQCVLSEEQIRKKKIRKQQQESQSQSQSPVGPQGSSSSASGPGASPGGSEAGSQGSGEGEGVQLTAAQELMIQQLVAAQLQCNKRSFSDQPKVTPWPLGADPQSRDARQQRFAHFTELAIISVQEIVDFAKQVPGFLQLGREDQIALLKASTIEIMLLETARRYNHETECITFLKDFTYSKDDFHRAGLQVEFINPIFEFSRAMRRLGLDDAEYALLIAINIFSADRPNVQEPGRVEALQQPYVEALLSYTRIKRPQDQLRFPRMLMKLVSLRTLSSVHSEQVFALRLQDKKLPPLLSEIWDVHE
The data set can be described thus: Transrepression of recombinant human GAL4-DBD fused LXRbeta LBD expressed in HEK293 cells after 20 hrs by luciferase reporter gene assay. It counts as cell-based. (In general: In a reporter assay the amount or activity of a reporter protein is the signal.)

The nature of data set [5]: AUC in rat at 0.5 mg/kg, iv. The class given is ADME, organism-based. The following applies: in vivo.
The target of data set [6] is T3, Nuclear receptor ROR-beta (Homo sapiens, UniProt Q92753).
T3 sequence (Q92753 whole entry): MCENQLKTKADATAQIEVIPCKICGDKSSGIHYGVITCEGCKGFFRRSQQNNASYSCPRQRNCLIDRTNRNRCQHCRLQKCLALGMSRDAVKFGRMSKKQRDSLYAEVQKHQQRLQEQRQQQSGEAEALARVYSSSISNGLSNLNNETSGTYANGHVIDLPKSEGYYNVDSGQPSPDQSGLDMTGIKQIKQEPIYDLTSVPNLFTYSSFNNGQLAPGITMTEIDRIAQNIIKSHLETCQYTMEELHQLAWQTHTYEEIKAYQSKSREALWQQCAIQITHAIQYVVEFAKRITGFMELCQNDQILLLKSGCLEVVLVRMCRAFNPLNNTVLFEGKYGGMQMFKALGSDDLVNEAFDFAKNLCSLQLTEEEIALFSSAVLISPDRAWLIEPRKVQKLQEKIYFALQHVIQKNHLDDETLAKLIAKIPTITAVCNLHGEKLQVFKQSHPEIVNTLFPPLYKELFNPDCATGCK
Briefly: Transrepression of recombinant human GAL4-DBD fused RORbeta LBD expressed in HEK293 cells after 20 hrs by luciferase reporter gene assay. The class given is cell-based.

Data set [7] can be described thus: Volume of distribution at steady state in rat at 0.5 mg/kg, iv. The class given is ADME, organism-based. The following applies: in vivo, read-out: Vdss.
The nature of data set [8]: Fraction unbound in rat plasma at 1 mg/kg, po. It counts as ADME, organism-based.
Data set [9] can be described thus: Stability in human liver microsomes assessed as parent compound remaining after 2 hrs by LC-MS/MS analysis. The following applies: read-out: Stability. It counts as ADME, microsome. On the technique in general: Microsomes from liver hold many membrane-bound enzymes, among them those of drug oxidation.
A short description of data set [10]: Stability in rat liver microsomes assessed as parent compound remaining after 2 hrs by LC-MS/MS analysis. The class given is ADME, microsome. The following applies: read-out: Stability.
Data set [11] is described as follows: Tmax in rat at 1 mg/kg, po. It counts as ADME, organism-based. The following applies: in vivo.
Data set [12] concerns the target T4, Nuclear receptor ROR-gamma (Homo sapiens, UniProt P51449).
T4 sequence (P51449 whole entry): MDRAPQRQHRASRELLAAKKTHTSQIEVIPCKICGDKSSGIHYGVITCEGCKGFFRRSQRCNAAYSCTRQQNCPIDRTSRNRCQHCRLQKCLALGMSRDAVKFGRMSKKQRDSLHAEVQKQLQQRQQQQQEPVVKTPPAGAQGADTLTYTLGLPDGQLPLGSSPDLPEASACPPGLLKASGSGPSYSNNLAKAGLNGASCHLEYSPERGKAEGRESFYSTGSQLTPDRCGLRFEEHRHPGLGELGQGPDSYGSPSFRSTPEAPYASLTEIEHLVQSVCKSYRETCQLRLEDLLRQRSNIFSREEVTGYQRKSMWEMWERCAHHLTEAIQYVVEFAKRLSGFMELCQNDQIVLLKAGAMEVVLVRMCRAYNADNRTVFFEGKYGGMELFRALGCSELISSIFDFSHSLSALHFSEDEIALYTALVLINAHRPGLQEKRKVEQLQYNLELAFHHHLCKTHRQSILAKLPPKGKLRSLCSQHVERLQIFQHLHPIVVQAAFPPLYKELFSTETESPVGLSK
Briefly: (§1) Transrepression of recombinant human GAL4-DBD fused RORgammat LBD expressed in HEK293 cells after 20 hrs by luciferase reporter gene assay. The class given is cell-based.

The target in data set [13] is T5, Nuclear receptor ROR-gamma (Homo sapiens) (UniProt P51449).
T5 sequence (whole entry): T4 sequence (P51449 whole entry)
The description is as §1. The class given is cell-based.

Data set [14] can be described thus: Solubility of the compound in NaCl/HCl buffer at pH 1.2 by shake-flask method. It counts as physicochemical.

Turning to `CCS(=O)(=O)c1ccc(CC(=O)Nc2ccc(C(C)(C)C(=O)Nc3ccc(F)cc3F)c(F)c2)cc1`, the bioavailability (commonly dose-corrected exposure relative to a reference, in per cent) in data set [1] stood at 54.5%. The thermodynamic solubility (commonly solubility found after equilibrating the solid with the medium) in data set [2] was 25 µM (≈ 13 µg/mL); in data set [14] it was 29 µM (≈ 15 µg/mL). Moreover, the IC50 (in general, the point on the concentration scale where inhibition reaches its midpoint) is above 10 µM in data set [3], above 10 µM in [6] and 0.029 µM in [12]. Further, the EC50 (usually the concentration at which the effect is half-maximal) in data set [4] is above 30 µM. Further, in data set [5], the AUC (commonly the area under the concentration-time curve, a measure of exposure) was determined as 1930 ng·h/mL. Besides, the Vd in [7] worked out at 1.1 L/kg. For the same molecule, in data set [8], the fraction unbound (as a rule, free concentration divided by total concentration) came out at 0.034. For the same molecule, the remaining at 2 h in data set [9] worked out at 95%; in [10] it was 89%. The Tmax (usually the time from dosing to the highest level) in data set [11] came out at 4 h. Besides, in data set [13], the Efficacy stood at 100%.

Regarding `CCS(=O)(=O)c1ccc(CC(=O)Nc2ccc(C(C)(C)C(=O)Nc3ccc(F)cc3)c(F)c2)cc1`, in data set [1], the bioavailability worked out at 39.9%. Moreover, the solubility (thermodynamic) in [2] amounted to 16 µM (≈ 8.01 µg/mL); in [14] it was 26 µM (≈ 13 µg/mL). The IC50 is above 10 µM in data set [3], above 10 µM in data set [6] and 0.025 µM in data set [12]. Moreover, the EC50 in [4] is above 30 µM. The area under the curve (AUC) in data set [5] is 986 ng·h/mL. Besides, the Vd in data set [7] amounted to 1.7 L/kg. The molecule further had a fraction unbound in data set [8] of 0.036. The remaining at 2 h in data set [9] is 63%; in data set [10], 77%. In data set [11], the Tmax was 2.5 h. Also, in data set [13], the Efficacy was determined as 95%.

With `CCS(=O)(=O)c1ccc(CC(=O)Nc2ccc(C(C)(C)C(=O)Nc3cc(C#N)ccn3)c(F)c2)cc1`, in [1], the bioavailability came to 19.6%. For the same molecule, the thermodynamic solubility came to 9 µM (≈ 4.58 µg/mL) in data set [2] and 30 µM (≈ 15.3 µg/mL) in data set [14]. Further, the results for the IC50 in data set [3], in [6] and in [12] were above 10 µM, above 10 µM and 0.016 µM, respectively. Moreover, the EC50 in data set [4] is above 30 µM. The AUC in [5] came out at 556 ng·h/mL. Further, the Vd in data set [7] was determined as 3.3 L/kg. In [8], this molecule came in with a fraction unbound of 0.051. In addition, the values for the remaining at 2 h in data set [9] and in data set [10] were 82% and 71%, respectively. Also, in data set [11], the Tmax came to 1 h. For the same molecule, the Efficacy in data set [13] amounted to 95%.
